Test results: the NIST ThermoML archive (doi:10.1016/j.fluid.2010.03.012)

Test: osmotic coefficient (dimensionless); mn = molality of the nth substance listed, in mol/kg
Conditions: 101 kPa, Liquid, isopiestic method

C1CN2CN3CCN(CN1C3)C2 [1,3,6,8-tetraazatricyclo[4.4.1.1(3,8)]dodecane] + O
Conditions	osmotic coefficient
288.15 K, m1 = 0.2149	0.9605
288.15 K, m1 = 0.2154	0.9583
288.15 K, m1 = 0.3036	0.9533
288.15 K, m1 = 0.3041	0.9518
288.15 K, m1 = 0.5049	0.9571
288.15 K, m1 = 0.5066	0.9563
288.15 K, m1 = 0.603	0.9824
288.15 K, m1 = 0.604	0.9816
288.15 K, m1 = 0.7629	1.016
288.15 K, m1 = 0.7638	1.015
288.15 K, m1 = 1.011	1.1
293.15 K, m1 = 0.2023	0.991
293.15 K, m1 = 0.2031	0.9887
293.15 K, m1 = 0.3454	0.9917
293.15 K, m1 = 0.3458	0.9907
293.15 K, m1 = 0.5003	0.993
293.15 K, m1 = 0.5009	0.9919
293.15 K, m1 = 0.7613	1.035
293.15 K, m1 = 0.7629	1.033
293.15 K, m1 = 0.9099	1.056
293.15 K, m1 = 0.9108	1.055
293.15 K, m1 = 1.068	1.119
293.15 K, m1 = 1.069	1.118
298.15 K, m1 = 0.2201	1.014
298.15 K, m1 = 0.2205	1.012
298.15 K, m1 = 0.3086	1.017
298.15 K, m1 = 0.3087	1.016
298.15 K, m1 = 0.5052	1.028
298.15 K, m1 = 0.5055	1.027
298.15 K, m1 = 0.562	1.032
298.15 K, m1 = 0.5624	1.032
298.15 K, m1 = 0.7125	1.045
298.15 K, m1 = 0.9849	1.075
298.15 K, m1 = 0.9867	1.073
303.15 K, m1 = 0.2074	0.972
303.15 K, m1 = 0.2079	0.9707
303.15 K, m1 = 0.3266	0.9871
303.15 K, m1 = 0.3271	0.9863
303.15 K, m1 = 0.5022	1.015
303.15 K, m1 = 0.5029	1.014
303.15 K, m1 = 0.6864	1.033
303.15 K, m1 = 0.6868	1.034
303.15 K, m1 = 0.7946	1.057
303.15 K, m1 = 0.7955	1.057
303.15 K, m1 = 1.028	1.103
303.15 K, m1 = 1.029	1.102
